The values that follow are results of earlier work, collected in patent US11931418B2, “Methods of treating severe inflammation” (Ashvattha Therapeutics, Inc., priority 2020, dated 2024).

The subject of this data set is SARS-CoV-2 patients. As to conditions: COVID-19 patients.

For lopinavir-ritonavir, the clinical benefit entry is given as “no benefit observed”.
